We go through 2 compounds from patent US20240082184A1, “IMPROVED TREATMENT FOR GLOBOID CELL LEUKODSYTROPHY OR KRABBE DISEASE” (priority 2021, published 2024).

What all share (format): in vivo
Test [1] deals with GALC−/− mice. Briefly: Immunofluorescence (immunostaining) of brain sections for PLP, MFI. Conditions: cerebellum and corpus callosum, oral, 15 days.
Experimental: After 2 weeks of treatment, mice were anesthetized and perfused with PBS (pH 7.4) and then with 4% (w/v) paraformaldehyde solution in PBS. […] Briefly, brains were incubated in PBS containing 0.05% Tween 20 (PBST) and 10% sucrose for 3 h and then 30% sucrose overnight at 4° C. Hemisected brains was then embedded in O.C.T (Tissue Tech) at −80° C. and processed for conventional cryosectioning. Frozen cerebellar and corpus callosum sections (40 micron thick) were treated with cold ethanol (−20° C.) followed by two rinses in PBS, blocking with 3% bovine serum albumin in PBST and labeling with anti-PLP antibody. After three washes in PBST, sections were further incubated with Cy5 (Jackson ImmunoResearch Laboratories, Inc.). The samples were mounted and observed under the Olympus BX41 fluorescent microscope equipped with a Hamamatsu ORCA-03G camera. Captured images were calibrated with the scale bar and then opened in ImageJ software for further quantification analysis. […] The final MFI was analyzed after subtracting the value with the background signal of respective images.
DAPI was used to visualize nucleus. Mean fluorescence intensity (MFI) of PLP was quantified (C, cerebellum; D, corpus callosum) in two different sections of each of five mice (n=5) per group. […]
Test [2] deals with GALC−/− mice. Briefly: Open field locomotor activity. To be noted: oral, 15 days.
Experimental: The open field test was conducted for analyzing general motor activities of mice. Locomotor activities were monitored by open field performance and footprint analysis as described in previous studies. […] Mice were placed in the center of a square wooden open field arena (40×40 cm, 30 cm high walls) and allowed to explore freely for 5 min. The movements of the mice were recorded using a camera linked to the Noldus system and EthoVisionXT software. Several parameters including velocity, total distance moved, movement/center point frequency, body elongation, etc. were analyzed to assess the general locomotor activity.
Following 15 days of treatment, open field locomotor activities were measured. […] Parameters related to movement of animals were obtained from the software and presented as velocity center point (B), distance moved center point (C), movement-center point frequency (D), and body elongation (E).
Locomotor activity was monitored as in Example 5. Following 15 days of treatment, open field locomotor activities were measured. […] Parameters related to movement of animals were obtained from the software and presented as velocity center point (B), distance moved center point (C), movement-center point frequency (D), and body elongation (E).
The subject of test [3] is GALC−/− mice. Briefly: Lifespan (percentage of survival, Kaplan-Meier plot). Conditions: oral. An excerpt: Heterozygous animals were used only for breeding purposes and were not used in the study. Animal maintaining and experiments were in accordance with National Institute of Health guidelines and were approved by the Institutional Animal Care and Use committee of the Rush University of Medical Center, Chicago, IL. Treated and untreated mice were allowed to survive humanely as long as possible. When a mouse reached a moribund stage, it was sacrificed.
As discussed below, after 2 weeks of oral feeding, several parameters were monitored including locomotor activity followed by examining myelin status and glial activation in cerebellum and corpus callosum. Longevity of GALC^−/− mice after drug treatment was also examined. In that case, GALC^−/− mice were treated with the drugs daily until mice reached the moribund stage.
Mice were treated continually until they reached the moribund stage at which point they were humanely sacrificed.

In test [4] the test system is GALC−/− mice. Briefly: Luxol fast blue (LFB) staining for myelin. Conditions: cerebellum and corpus callosum, oral, 15 days.
Text: Cerebellar and corpus callosum sections of paraformaldehyde-fixed brain tissues were stained with Luxol fast blue for myelin as described elsewhere. […] FIG. 5 similarly depicts luxol fast blue (LFB) staining of myelin in the cerebellum (A) and corpus callosum (B) of GALC^−/− mice following identical treatment. Results represent analysis of two different sections of each of five mice (n=5) per group. […] FIG. 13 similarly depicts luxol fast blue (LFB) staining of myelin in the cerebellum (A) and corpus callosum (B) of GALC^−/− mice following identical treatment. Results represent analysis of two different sections of each of five mice (n=5) per group.
The test system of test [5] is GALC−/− mice. Briefly: Levels of myelin proteins PLP and MBP in brain by Western blot. Conditions: gemfibrozil 8 mg/kg/d alone or with vitamin A 150 IU/kg/d. (In western blotting, separated proteins are transferred to a membrane and probed.)
The subject of test [6] is GALC−/− mice. Briefly: Astroglial activation: GFAP and iNOS levels in brain by Western blot. To be noted: gemfibrozil 8 mg/kg/d alone or with vitamin A 150 IU/kg/d, oral, 15 days.
The mark [7] stands for this setting: cerebellum, oral gavage, 15 days from 10 d of age, FIG. 2.
[8] abbreviates: corpus callosum, oral, 15 days, FIG. 3.

On to `O=C(O)C=Cc1ccccc1` [cinnamic acid], for which the “myelin status by PLP immunostaining (MFI of PLP)” value in test [1] (cinnamic acid 25 and 50 mg/kg/day, FIG. 12) is given as “protecting myelin”. For the same compound, in test [2] (cinnamic acid 25 and 50 mg/kg/day, FIG. 16), the “motor activity in open field versus vehicle treatment” value was “increased”. Also, the “lifespan (percentage of survival)” value in test [3] (cinnamic acid 25 and 50 mg/kg/day, until moribund stage, FIG. 17) is “increases the lifespan”. Besides, the “myelin status by luxol fast blue (LFB) staining” value in test [4] (cinnamic acid 25 and 50 mg/kg/day, FIG. 13) is “protection of myelin”.

Turning to `Cc1ccc(C)c(OCCCC(C)(C)C(=O)O)c1` [gemfibrozil], the “myelin status by PLP immunostaining (MFI of PLP)” value in test [1] (gemfibrozil 8 mg/kg/d alone or with vitamin A 150 IU/kg/d, FIG. 4) is recorded as “protecting myelin”. The “motor activity in open field versus vehicle treatment” value in test [2] (gemfibrozil 8 mg/kg/d alone or with vitamin A 150 IU/kg/d, FIG. 8) was “increased”. The “lifespan (percentage of survival)” value in test [3] (gemfibrozil 8 mg/kg/d alone or with vitamin A 150 IU/kg/d, daily until moribund stage, FIG. 9) is given as “increase the lifespan”. Moreover, the “level of MBP (MBP/Actin relative to control)” value in test [5] (setting [7]) and in test [5] (setting [8]) was “significantly increased” each time. The “level of PLP (PLP/Actin relative to control)” value in test [5] (setting [7]) and in test [5] (setting [8]) was “significantly increased” each time. Besides, the “myelin status by luxol fast blue (LFB) staining” value in test [4] (gemfibrozil 8 mg/kg/d alone or with vitamin A 150 IU/kg/d, FIG. 5) is given as “protection of myelin”. The “level of GFAP (GFAP/Actin relative to control)” value in test [6] (cerebellum, FIG. 6) is given as “significantly reduced”; in test [6] (corpus callosum, FIG. 7), “significantly reduced”. Also, the “level of iNOS (iNOS/Actin relative to control)” value is “significantly reduced” in test [6] (cerebellum, FIG. 6) and “significantly reduced” in test [6] (corpus callosum, FIG. 7).
